Measurements reported in the kinase profiling compilation of Christmann-Franck et al. (2016).

Columns and labels:
Experiment in all cases: Caliper, Mobility shift assay off-chip
FGFR1 (human) = FGFR1 (human) (UniProt P11362)
DCLK1 (human) = DCLK1 (human) (UniProt O15075)
TYRO3 (human) = TYRO3 (human) (UniProt Q06418)
MST1R (human) = MST1R (human) (UniProt Q04912)
MARK4 (human) = MARK4 (human) (UniProt Q96L34)
DAPK1 (human) = DAPK1 (human) (UniProt P53355)
AXL (human) = AXL (human) (UniProt P30530)
NTRK3 (human) = NTRK3 (human) (UniProt Q16288)
ROS1 (human) = ROS1 (human) (UniProt P08922)
DYRK3 (human) = DYRK3 (human) (UniProt O43781)
DYRK3 (human), sequence (O43781 whole entry, looked up): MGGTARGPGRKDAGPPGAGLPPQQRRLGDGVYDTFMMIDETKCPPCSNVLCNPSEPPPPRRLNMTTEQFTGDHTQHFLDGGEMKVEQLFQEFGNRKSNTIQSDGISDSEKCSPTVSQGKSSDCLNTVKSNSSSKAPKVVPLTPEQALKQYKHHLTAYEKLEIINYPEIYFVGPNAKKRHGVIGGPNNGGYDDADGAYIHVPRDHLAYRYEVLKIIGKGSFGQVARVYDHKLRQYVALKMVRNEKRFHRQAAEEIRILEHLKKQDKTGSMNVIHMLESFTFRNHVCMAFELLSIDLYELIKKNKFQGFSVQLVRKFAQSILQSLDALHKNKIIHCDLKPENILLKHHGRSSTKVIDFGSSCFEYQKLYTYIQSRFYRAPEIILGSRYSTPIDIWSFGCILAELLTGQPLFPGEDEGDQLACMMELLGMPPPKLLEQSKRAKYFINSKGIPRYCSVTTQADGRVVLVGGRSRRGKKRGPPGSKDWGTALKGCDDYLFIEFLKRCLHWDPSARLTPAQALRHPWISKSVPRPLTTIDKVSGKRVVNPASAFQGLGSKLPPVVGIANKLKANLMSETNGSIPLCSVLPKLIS

PRKCI (human) = PRKCI (human) (UniProt P41743)
RPS6KA6 KD1 KD2 (human) = RPS6KA6 KD1 KD2 (human) (UniProt Q9UK32)
CDK1 (human) = CDK1 (human) (UniProt P06493)
CDK1 (human), sequence (P06493 whole entry, looked up): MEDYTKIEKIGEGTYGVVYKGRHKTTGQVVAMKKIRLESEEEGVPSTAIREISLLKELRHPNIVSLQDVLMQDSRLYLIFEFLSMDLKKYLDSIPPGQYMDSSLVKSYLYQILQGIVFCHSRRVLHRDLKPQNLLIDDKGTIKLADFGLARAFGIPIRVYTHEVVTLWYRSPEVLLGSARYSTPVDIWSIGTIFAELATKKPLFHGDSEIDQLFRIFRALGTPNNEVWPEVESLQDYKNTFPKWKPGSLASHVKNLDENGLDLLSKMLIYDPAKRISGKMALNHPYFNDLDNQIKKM

DYRK4 (human) = DYRK4 (human) (UniProt Q9NR20)
ITK (human) = ITK (human) (UniProt Q08881)
ITK (human), sequence (Q08881 whole entry, looked up): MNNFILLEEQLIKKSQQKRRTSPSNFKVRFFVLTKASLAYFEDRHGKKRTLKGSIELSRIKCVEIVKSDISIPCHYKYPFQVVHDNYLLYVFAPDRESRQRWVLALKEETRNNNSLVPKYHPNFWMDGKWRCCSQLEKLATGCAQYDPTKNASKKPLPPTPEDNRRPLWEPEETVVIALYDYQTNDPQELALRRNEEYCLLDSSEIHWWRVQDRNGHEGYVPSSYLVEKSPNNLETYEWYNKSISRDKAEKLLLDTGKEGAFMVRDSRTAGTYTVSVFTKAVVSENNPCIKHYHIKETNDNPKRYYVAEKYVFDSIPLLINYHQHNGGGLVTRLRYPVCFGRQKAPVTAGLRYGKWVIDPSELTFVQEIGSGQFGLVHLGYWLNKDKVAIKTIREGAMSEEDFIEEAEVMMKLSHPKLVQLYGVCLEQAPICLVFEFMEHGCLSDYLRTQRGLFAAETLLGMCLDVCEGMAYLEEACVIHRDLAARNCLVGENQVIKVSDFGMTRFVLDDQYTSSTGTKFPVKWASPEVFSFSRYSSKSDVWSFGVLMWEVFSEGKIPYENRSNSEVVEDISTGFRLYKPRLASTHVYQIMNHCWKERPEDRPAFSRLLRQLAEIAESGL

CAMK2A (human) = CAMK2A (human) (UniProt Q9UQM7)
TXK (human) = TXK (human) (UniProt P42681)
CLK2 (human) = CLK2 (human) (UniProt P49760)
CLK2 (human), sequence (P49760 whole entry, looked up): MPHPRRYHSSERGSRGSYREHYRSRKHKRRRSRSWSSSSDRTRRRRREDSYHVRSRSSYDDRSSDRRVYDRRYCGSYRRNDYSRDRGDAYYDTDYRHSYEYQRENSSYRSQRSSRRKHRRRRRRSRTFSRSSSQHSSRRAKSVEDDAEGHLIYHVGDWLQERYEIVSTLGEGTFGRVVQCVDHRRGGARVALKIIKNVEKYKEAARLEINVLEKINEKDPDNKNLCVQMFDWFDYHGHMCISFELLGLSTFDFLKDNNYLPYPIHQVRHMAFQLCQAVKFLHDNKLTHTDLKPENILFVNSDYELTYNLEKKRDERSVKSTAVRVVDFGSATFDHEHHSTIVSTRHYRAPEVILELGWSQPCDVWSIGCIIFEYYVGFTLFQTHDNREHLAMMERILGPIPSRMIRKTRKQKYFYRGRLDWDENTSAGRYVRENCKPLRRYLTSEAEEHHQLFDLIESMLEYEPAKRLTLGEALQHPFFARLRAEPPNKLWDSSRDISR

PTK2B (human) = PTK2B (human) (UniProt Q14289)
[1] = test system: FGFR3 (human), P22607 [K650E]
BLK (human) = BLK (human) (UniProt P51451)
CDK5 CDK5R1 p25 (human) = CDK5 CDK5R1 p25 (human) (UniProt Q15078+Q00535)
[2] = test system: PDGFRA (human), P16234 [V561D]
KIT (human) = KIT (human) (UniProt P10721)
DAPK3 (human) = DAPK3 (human) (UniProt O43293)
DAPK3 (human), sequence (O43293 whole entry, looked up): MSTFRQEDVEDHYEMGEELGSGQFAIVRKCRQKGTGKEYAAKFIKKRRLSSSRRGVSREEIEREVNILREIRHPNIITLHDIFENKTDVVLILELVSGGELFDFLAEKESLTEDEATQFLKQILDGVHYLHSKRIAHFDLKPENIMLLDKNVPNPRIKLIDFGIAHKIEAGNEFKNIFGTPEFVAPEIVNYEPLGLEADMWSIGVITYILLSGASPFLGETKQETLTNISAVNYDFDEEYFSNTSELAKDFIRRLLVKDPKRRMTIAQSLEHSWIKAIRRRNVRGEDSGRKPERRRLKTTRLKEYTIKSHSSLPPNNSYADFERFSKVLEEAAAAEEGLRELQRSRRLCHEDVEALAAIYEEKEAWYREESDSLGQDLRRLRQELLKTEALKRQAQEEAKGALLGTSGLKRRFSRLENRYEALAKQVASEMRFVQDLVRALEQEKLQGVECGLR

[3] = test system: EGFR (human), P00533 [T790M]
[4] = biological target: PRKAA2 PRKAB1 PRKAG1 (human) (UniProt Q9Y478+P54646+P54619)
PRKAA2 PRKAB1 PRKAG1 (human), sequence (P54619 whole entry, looked up): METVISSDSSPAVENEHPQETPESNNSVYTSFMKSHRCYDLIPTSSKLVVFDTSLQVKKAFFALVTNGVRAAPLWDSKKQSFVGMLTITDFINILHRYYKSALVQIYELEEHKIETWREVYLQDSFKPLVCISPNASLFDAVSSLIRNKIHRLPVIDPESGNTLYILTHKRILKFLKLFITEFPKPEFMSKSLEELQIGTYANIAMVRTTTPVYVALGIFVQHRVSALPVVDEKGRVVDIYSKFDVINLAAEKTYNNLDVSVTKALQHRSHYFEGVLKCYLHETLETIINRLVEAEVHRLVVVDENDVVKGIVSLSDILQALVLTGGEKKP
PRKAA2 PRKAB1 PRKAG1 (human), sequence (P54646 whole entry, looked up): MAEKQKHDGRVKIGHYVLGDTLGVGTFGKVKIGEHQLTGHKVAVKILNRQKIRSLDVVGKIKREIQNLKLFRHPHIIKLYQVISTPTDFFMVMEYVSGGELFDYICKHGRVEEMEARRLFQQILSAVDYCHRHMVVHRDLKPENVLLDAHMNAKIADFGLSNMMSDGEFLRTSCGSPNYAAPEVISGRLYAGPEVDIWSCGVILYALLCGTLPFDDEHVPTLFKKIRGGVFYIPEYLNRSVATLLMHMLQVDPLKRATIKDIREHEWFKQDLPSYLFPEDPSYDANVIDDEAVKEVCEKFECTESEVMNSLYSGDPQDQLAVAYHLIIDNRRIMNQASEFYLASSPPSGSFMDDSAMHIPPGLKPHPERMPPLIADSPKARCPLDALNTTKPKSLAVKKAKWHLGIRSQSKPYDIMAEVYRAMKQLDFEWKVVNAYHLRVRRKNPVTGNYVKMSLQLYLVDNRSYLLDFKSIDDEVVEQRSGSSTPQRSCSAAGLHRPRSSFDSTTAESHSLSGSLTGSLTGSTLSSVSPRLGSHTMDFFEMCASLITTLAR
PRKAA2 PRKAB1 PRKAG1 (human), sequence (Q9Y478 whole entry, looked up): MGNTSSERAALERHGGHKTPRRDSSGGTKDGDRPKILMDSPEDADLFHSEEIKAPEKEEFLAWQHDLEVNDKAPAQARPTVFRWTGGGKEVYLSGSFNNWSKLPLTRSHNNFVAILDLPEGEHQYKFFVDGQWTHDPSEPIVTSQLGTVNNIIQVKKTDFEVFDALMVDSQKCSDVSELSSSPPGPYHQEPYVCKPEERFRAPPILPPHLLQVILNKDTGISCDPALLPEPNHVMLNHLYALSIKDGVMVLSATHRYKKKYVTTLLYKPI

EPHB1 (human) = EPHB1 (human) (UniProt P54762)
JAK2 JH1 JH2 (human) = JAK2 JH1 JH2 (human) (UniProt O60674)
PIM3 (human) = PIM3 (human) (UniProt Q86V86)
RET (human) = RET (human) (UniProt P07949)
HIPK2 (human) = HIPK2 (human) (UniProt Q9H2X6)
PHKG1 (human) = PHKG1 (human) (UniProt Q16816)

FGFR1 (human), sequence (P11362 whole entry, looked up): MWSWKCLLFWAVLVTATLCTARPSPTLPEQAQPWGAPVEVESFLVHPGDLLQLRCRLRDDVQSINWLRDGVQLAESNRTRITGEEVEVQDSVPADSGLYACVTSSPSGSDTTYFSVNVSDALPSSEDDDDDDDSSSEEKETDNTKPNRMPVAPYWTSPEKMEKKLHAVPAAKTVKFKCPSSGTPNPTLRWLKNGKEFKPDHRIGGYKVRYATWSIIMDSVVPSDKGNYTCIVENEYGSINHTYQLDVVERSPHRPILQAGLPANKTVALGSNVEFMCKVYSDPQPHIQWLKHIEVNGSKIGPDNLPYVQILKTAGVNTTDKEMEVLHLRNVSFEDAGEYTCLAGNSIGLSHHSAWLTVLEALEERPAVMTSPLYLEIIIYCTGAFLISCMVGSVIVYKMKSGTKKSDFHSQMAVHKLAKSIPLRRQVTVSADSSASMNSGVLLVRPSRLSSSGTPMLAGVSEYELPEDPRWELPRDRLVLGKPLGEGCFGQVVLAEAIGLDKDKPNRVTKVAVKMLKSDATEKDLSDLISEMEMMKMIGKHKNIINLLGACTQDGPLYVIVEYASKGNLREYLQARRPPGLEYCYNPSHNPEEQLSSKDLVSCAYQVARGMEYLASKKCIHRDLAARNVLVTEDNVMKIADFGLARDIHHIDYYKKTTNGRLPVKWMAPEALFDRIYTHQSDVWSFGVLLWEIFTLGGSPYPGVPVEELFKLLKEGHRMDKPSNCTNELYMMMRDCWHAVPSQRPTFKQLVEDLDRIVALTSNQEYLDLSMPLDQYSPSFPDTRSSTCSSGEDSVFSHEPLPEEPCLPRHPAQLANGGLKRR

SMILES: O=c1c2cc(CS(=O)(=O)NCc3ccccn3)ccc2ccc2ncc(C3CCNCC3)cc12
- inhibition (FGFR1 (human); compound 0.01 µM): 3.8%
- inhibition (FGFR1 (human); compound 0.1 µM): 10.7%

SMILES: Cn1cc(-c2cnc3ccc4ccc(CS(=O)(=O)NC5CCCCC5)cc4c(=O)c3c2)cn1
- inhibition (DCLK1 (human); compound 0.01 µM): 5.9%
- inhibition (DCLK1 (human); compound 0.1 µM): 12%
- inhibition (TYRO3 (human); compound 0.01 µM): -1.1%
- inhibition (TYRO3 (human); compound 0.1 µM): 9.2%
- inhibition (MST1R (human); compound 0.01 µM): 11.8%
- inhibition (MST1R (human); compound 0.1 µM): 37.6%
- inhibition (MARK4 (human); compound 0.01 µM): 7.1%
- inhibition (MARK4 (human); compound 0.1 µM): 2.2%
- inhibition (DAPK1 (human); compound 0.01 µM): 13.1%
- inhibition (DAPK1 (human); compound 0.1 µM): 0.1%
- inhibition (AXL (human); compound 0.01 µM): -2.8%
- inhibition (AXL (human); compound 0.1 µM): 11.7%
- inhibition (NTRK3 (human); compound 0.01 µM): 8.4%
- inhibition (NTRK3 (human); compound 0.1 µM): -0.4%
- inhibition (ROS1 (human); compound 0.01 µM): 21.2%
- inhibition (ROS1 (human); compound 0.1 µM): 6.6%
- inhibition (DYRK3 (human); compound 0.01 µM): 1.8%
- inhibition (DYRK3 (human); compound 0.1 µM): 19.6%
- inhibition (PRKCI (human); compound 0.01 µM): 0.9%
- inhibition (PRKCI (human); compound 0.1 µM): 1%
- inhibition (RPS6KA6 KD1 KD2 (human); compound 0.01 µM): 5.8%
- inhibition (RPS6KA6 KD1 KD2 (human); compound 0.1 µM): 3.2%
- inhibition (CDK1 (human); compound 0.01 µM): -5.7%
- inhibition (CDK1 (human); compound 0.1 µM): 1.6%
- inhibition (DYRK4 (human); compound 0.01 µM): 8.3%
- inhibition (DYRK4 (human); compound 0.1 µM): 12.1%
- inhibition (ITK (human); compound 0.01 µM): -2.6%
- inhibition (ITK (human); compound 0.1 µM): 15.3%
- inhibition (CAMK2A (human); compound 0.01 µM): -12.3%
- inhibition (CAMK2A (human); compound 0.1 µM): -3.8%
- inhibition (TXK (human); compound 0.01 µM): -5.5%
- inhibition (TXK (human); compound 0.1 µM): 4.8%
- inhibition (CLK2 (human); compound 0.01 µM): -6.3%
- inhibition (CLK2 (human); compound 0.1 µM): -5.2%
- inhibition (PTK2B (human); compound 0.01 µM): -1%
- inhibition (PTK2B (human); compound 0.1 µM): 6.8%
- inhibition ([1]; compound 0.01 µM): -2.1%
- inhibition ([1]; compound 0.1 µM): 5.1%
- inhibition (BLK (human); compound 0.01 µM): 0.8%
- inhibition (BLK (human); compound 0.1 µM): 15.8%
- inhibition (CDK5 CDK5R1 p25 (human); compound 0.01 µM): 8.4%
- inhibition (CDK5 CDK5R1 p25 (human); compound 0.1 µM): -2%
- inhibition ([2]; compound 0.01 µM): 4.1%
- inhibition ([2]; compound 0.1 µM): 19.6%
- inhibition (KIT (human); compound 0.01 µM): -3.5%
- inhibition (KIT (human); compound 0.1 µM): 13.6%
- inhibition (DAPK3 (human); compound 0.01 µM): -1.6%
- inhibition (DAPK3 (human); compound 0.1 µM): 0.3%
- inhibition ([3]; compound 0.01 µM): -4.4%
- inhibition ([3]; compound 0.1 µM): -7.2%
- inhibition ([4]; compound 0.01 µM): 2.9%
- inhibition ([4]; compound 0.1 µM): -0.1%
- inhibition (FGFR1 (human); compound 0.01 µM): 6.8%
- inhibition (FGFR1 (human); compound 0.1 µM): 2.8%
- inhibition (EPHB1 (human); compound 0.01 µM): 5.1%
- inhibition (EPHB1 (human); compound 0.1 µM): -8%
- inhibition (JAK2 JH1 JH2 (human); compound 0.01 µM): 8.9%
- inhibition (JAK2 JH1 JH2 (human); compound 0.1 µM): 11.9%
- inhibition (PIM3 (human); compound 0.01 µM): 7%
- inhibition (PIM3 (human); compound 0.1 µM): 4.6%
- inhibition (RET (human); compound 0.01 µM): 10.4%
- inhibition (RET (human); compound 0.1 µM): 12.1%
- inhibition (HIPK2 (human); compound 0.01 µM): -0.3%
- inhibition (HIPK2 (human); compound 0.1 µM): 7%
- inhibition (PHKG1 (human); compound 0.01 µM): 6.4%
- inhibition (PHKG1 (human); compound 0.1 µM): 14.9%

SMILES: O=C(CCc1ccc2ccc3ncc(C4CCNCC4)cc3c(=O)c2c1)NCc1ccccn1
- inhibition (DCLK1 (human); compound 0.1 µM): -26.1%
- inhibition (DCLK1 (human); compound 1.0 µM): -5.4%
- inhibition (TYRO3 (human); compound 0.1 µM): 4.1%
- inhibition (TYRO3 (human); compound 1.0 µM): 4.2%
- inhibition (MST1R (human); compound 0.1 µM): -3.6%
- inhibition (MST1R (human); compound 1.0 µM): 20.5%
- inhibition (MARK4 (human); compound 0.1 µM): 0%
- inhibition (MARK4 (human); compound 1.0 µM): -3.4%
- inhibition (DAPK1 (human); compound 0.1 µM): 2.4%
- inhibition (DAPK1 (human); compound 1.0 µM): 0.1%
- inhibition (AXL (human); compound 0.1 µM): 6.1%
- inhibition (AXL (human); compound 1.0 µM): 20.3%
- inhibition (NTRK3 (human); compound 0.1 µM): 6%
- inhibition (NTRK3 (human); compound 1.0 µM): 10.4%
- inhibition (ROS1 (human); compound 0.1 µM): 5.1%
- inhibition (ROS1 (human); compound 1.0 µM): -12.4%
- inhibition (DYRK3 (human); compound 0.1 µM): -1.4%
- inhibition (DYRK3 (human); compound 1.0 µM): 2.9%
- inhibition (PRKCI (human); compound 0.1 µM): -0.6%
- inhibition (PRKCI (human); compound 1.0 µM): 1.4%
- inhibition (RPS6KA6 KD1 KD2 (human); compound 0.1 µM): 5.9%
- inhibition (RPS6KA6 KD1 KD2 (human); compound 1.0 µM): -8.4%
- inhibition (CDK1 (human); compound 0.1 µM): -3.9%
- inhibition (CDK1 (human); compound 1.0 µM): 1.2%
- inhibition (DYRK4 (human); compound 0.1 µM): 1.8%
- inhibition (DYRK4 (human); compound 1.0 µM): 0.5%
- inhibition (ITK (human); compound 0.1 µM): -5%
- inhibition (ITK (human); compound 1.0 µM): -1.8%
- inhibition (CAMK2A (human); compound 0.1 µM): -8.9%
- inhibition (CAMK2A (human); compound 1.0 µM): -3.1%
- inhibition (TXK (human); compound 0.1 µM): -5.1%
- inhibition (TXK (human); compound 1.0 µM): -9.7%
- inhibition (CLK2 (human); compound 0.1 µM): 3.4%
- inhibition (CLK2 (human); compound 1.0 µM): 4.1%
- inhibition (PTK2B (human); compound 0.1 µM): 10%
- inhibition (PTK2B (human); compound 1.0 µM): 2.5%
- inhibition ([1]; compound 0.1 µM): -1.7%
- inhibition ([1]; compound 1.0 µM): 2.1%
- inhibition (BLK (human); compound 0.1 µM): -0.5%
- inhibition (BLK (human); compound 1.0 µM): 16.6%
- inhibition (CDK5 CDK5R1 p25 (human); compound 0.1 µM): 2.2%
- inhibition (CDK5 CDK5R1 p25 (human); compound 1.0 µM): 0.3%
- inhibition ([2]; compound 0.1 µM): -12.5%
- inhibition ([2]; compound 1.0 µM): 21.5%
- inhibition (KIT (human); compound 0.1 µM): -1.6%
- inhibition (KIT (human); compound 1.0 µM): 6.6%
- inhibition (DAPK3 (human); compound 0.1 µM): -1.7%
- inhibition (DAPK3 (human); compound 1.0 µM): -4.5%
- inhibition ([3]; compound 0.1 µM): 1.6%
- inhibition ([3]; compound 1.0 µM): -11.1%
- inhibition ([4]; compound 0.1 µM): 5.1%
- inhibition ([4]; compound 1.0 µM): -1.5%
- inhibition (FGFR1 (human); compound 0.1 µM): 1.5%
- inhibition (FGFR1 (human); compound 1.0 µM): -7.9%
- inhibition (EPHB1 (human); compound 0.1 µM): 1%
- inhibition (EPHB1 (human); compound 1.0 µM): 3.3%
- inhibition (JAK2 JH1 JH2 (human); compound 0.1 µM): -2.8%
- inhibition (JAK2 JH1 JH2 (human); compound 1.0 µM): 5.9%
- inhibition (PIM3 (human); compound 0.1 µM): -3.4%
- inhibition (PIM3 (human); compound 1.0 µM): 0.3%
- inhibition (RET (human); compound 0.1 µM): 1.9%
- inhibition (RET (human); compound 1.0 µM): 2.8%
- inhibition (HIPK2 (human); compound 0.1 µM): 3.6%
- inhibition (HIPK2 (human); compound 1.0 µM): 3.9%
- inhibition (PHKG1 (human); compound 0.1 µM): 7.9%
- inhibition (PHKG1 (human); compound 1.0 µM): 1.2%

SMILES: Cn1cc(-c2cnc3ccc4ccc(CS(=O)(=O)CCc5ccccn5)cc4c(=O)c3c2)cn1
- inhibition (FGFR1 (human); compound 0.1 µM): 12.3%
- inhibition (FGFR1 (human); compound 1.0 µM): 61.2%
